PubChem BioAssay AID1033 (Sanford-Burnham Center for Chemical Genomics, 2008)
The source made the active and inactive calls. How the calls were made is not given here.

Molecular target: Chaperone protein DnaK (Escherichia coli (strain K12)) (UniProt P0A6Y8)
Assay: binders of DnaK substrate-binding domain, biophysical, NMR, chaperone (AID 1033)
Conditions: Purified DnaK SBD, NMR ligand binding

Chaperone protein DnaK (Escherichia coli (strain K12)), sequence (P0A6Y8 whole entry, looked up, the tested form may be a part): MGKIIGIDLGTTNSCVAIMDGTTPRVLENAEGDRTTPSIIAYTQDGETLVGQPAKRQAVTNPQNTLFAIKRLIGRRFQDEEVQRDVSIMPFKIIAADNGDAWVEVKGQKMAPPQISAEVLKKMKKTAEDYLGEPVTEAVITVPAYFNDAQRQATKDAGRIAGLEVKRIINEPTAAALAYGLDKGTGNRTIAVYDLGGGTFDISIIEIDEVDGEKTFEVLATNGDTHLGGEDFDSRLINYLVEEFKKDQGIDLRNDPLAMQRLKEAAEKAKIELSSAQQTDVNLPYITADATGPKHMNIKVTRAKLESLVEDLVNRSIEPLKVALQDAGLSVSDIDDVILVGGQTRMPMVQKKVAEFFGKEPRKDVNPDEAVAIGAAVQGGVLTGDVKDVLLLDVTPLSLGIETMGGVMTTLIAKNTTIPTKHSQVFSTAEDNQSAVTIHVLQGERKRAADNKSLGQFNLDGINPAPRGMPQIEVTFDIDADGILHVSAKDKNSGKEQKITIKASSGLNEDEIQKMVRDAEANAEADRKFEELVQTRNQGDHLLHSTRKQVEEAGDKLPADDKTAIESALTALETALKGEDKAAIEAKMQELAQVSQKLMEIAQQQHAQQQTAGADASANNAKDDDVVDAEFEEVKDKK

Row | SMILES | Kd
1 | OCc1ccc(-c2ccccn2)s1 | > 4 mM (inactive)
2 | Nc1cc(-c2ccco2)[nH]n1 | > 4 mM (inactive)
3 | COC(=O)c1cn(C(=O)OC)c2ccccc12 | > 4 mM (inactive)
4 | O=c1[nH]c2sc3c(c2c2ncnn12)CCCC3 | > 4 mM (inactive)
5 | OCc1cc(-c2cccs2)on1 | > 4 mM (inactive)
6 | OC1CC2CCC1C2 (stereo not given) | > 4 mM (inactive)
7 | Cc1cc(=O)cc(C)n1-c1ccccc1N | > 4 mM (inactive)
8 | Cc1cc(NC(=O)c2cccc(S(C)(=O)=O)c2)no1 | > 4 mM (inactive)
9 | O=C(NCCO)c1cc2ccccc2c(=O)s1 | > 4 mM (inactive)
10 | CC(C)CCCC(C)C1CCC2C3=CC[C@H]4C[C@@H](O)CC[C@]4(C)C3CC[C@@]21C (stereo not given in full) | > 4 mM (inactive)
11 | CC(=O)Nc1ccc(C(=O)NC2CCSC2=O)cc1 (stereo not given) | > 4 mM (inactive)
12 | CCn1c(C)c(C(C)=O)c(N2CCOCC2)nc1=S | > 4 mM (inactive)
13 | CCNC(=O)CC1Nc2ccccc2NC1=O (stereo not given) | > 4 mM (inactive)
14 | CSc1nc2[nH]ncc2c(=O)[nH]1 | > 4 mM (inactive)
15 | COc1cc(/C=C/C(=O)O)cc(OC)c1OC | > 4 mM (inactive)
16 | Nc1nc(SCC(=O)c2ccc([N+](=O)[O-])cc2)n[nH]1 | > 4 mM (inactive)
17 | CNc1nc(SC)nc(N2CCOCC2)n1 | > 4 mM (inactive)
18 | O=C(O)c1csc(-c2cccs2)n1 | > 4 mM (inactive)
19 | Cc1ccc(CN2C3=NC(=O)CN3c3ccccc32)cc1 | > 4 mM (inactive)
20 | C[C@@H]1CC[C@@]2(NC1)O[C@H]1C[C@H]3C4CC=C5C[C@@H](O)CC[C@]5(C)C4CC[C@]3(C)C1[C@@H]2C (stereo not given in full) | > 4 mM (inactive)
21 | Cc1cc(C)nc(NC(N)=NCc2ccco2)n1 | > 4 mM (inactive)
22 | COc1ccc(-c2coc3cc(O)ccc3c2=O)cc1 | > 4 mM (inactive)
23 | CC(C)NC(=S)NCc1cnn(C)c1 | > 4 mM (inactive)

Row | SMILES | Kd
24 | CN(c1ccccc1C(=O)N1CCOCC1)S(C)(=O)=O | > 4 mM (inactive)
25 | Cc1cc(F)c(F)c(C(=O)NC2CC2)c1Cl | > 4 mM (inactive)
26 | Cn1cnc2c(Cl)ncnc21 | > 4 mM (inactive)
27 | O=C1NC(=Nc2ccccc2)S/C1=C/c1cccnc1 | > 4 mM (inactive)
28 | Cc1csc(NC(=O)c2ccoc2C)n1 | > 4 mM (inactive)
29 | Nc1ncnc2c1ncn2CCN1CCOCC1 | > 4 mM (inactive)
30 | CNC(=O)C1CCCN(S(C)(=O)=O)C1 (stereo not given) | > 4 mM (inactive)
31 | Cc1ccc(-n2cnnn2)c2cccnc12 | > 4 mM (inactive)
32 | C[C@H]1[C@H](C)CC[C@]2(CO)CC[C@]3(C)C(=CCC4[C@@]5(C)CC[C@H](O)C(C)(C)C5CC[C@]43C)[C@H]12 (stereo not given in full) | > 4 mM (inactive)
33 | Cc1nnc(NCCO)[nH]c1=O | > 4 mM (inactive)
34 | Cc1ccc(C(=O)N2CCC(C(N)=O)CC2)c(Cl)c1 | > 4 mM (inactive)
35 | Cc1nnc2sc(-c3ccco3)nn12 | > 4 mM (inactive)
36 | Nc1cc(=O)[nH]c(SCC(=O)Nc2nccs2)n1 | > 4 mM (inactive)
37 | Cn1c(SCC(N)=O)nnc1-c1cccnc1 | > 4 mM (inactive)
38 | CN1C(=O)c2ccc(C(=O)NC3CCCCC3)cc2C1=O | > 4 mM (inactive)
39 | O=C1NC(=O)C2C3C=CC(O3)C12 (stereo not given) | > 4 mM (inactive)
40 | Cc1nn2c(-c3ccco3)nnc2c2ccccc12 | > 4 mM (inactive)
41 | O=C(Cc1c(F)cccc1Cl)Nc1cccnc1 | > 4 mM (inactive)
42 | CNC(=O)CC1Sc2ccccc2NC1=O (stereo not given) | > 4 mM (inactive)
43 | O=C(O)C1CCCN1Cc1c[nH]c2ccccc12 (stereo not given) | > 4 mM (inactive)
44 | COC(=O)C1=CCCN(C)C1 | > 4 mM (inactive)
45 | O=S(=O)(N1CCOCC1)n1nnc2ccccc21 | > 4 mM (inactive)
46 | CC(C)CCCC(C)[C@H]1CCC2C3CC[C@@H]4C[C@H](O)CC[C@]4(C)C3CC[C@@]21C (stereo not given in full) | > 4 mM (inactive)

Row | SMILES | Kd
47 | O=C(/C=C/c1ccc(O)cc1)c1ccc(O)cc1O | > 4 mM (inactive)
48 | COC(=O)c1scc(C)c1N | > 4 mM (inactive)
49 | CC1(C)SCC(C(=O)O)N1C=O (stereo not given) | > 4 mM (inactive)
50 | Cn1c(=O)c2c(ncn2CCN)n(C)c1=O | > 4 mM (inactive)
51 | O=c1c(O)cc([C@H]2Oc3cc(O)cc(O)c3C[C@H]2O)cc2c([C@H]3Oc4cc(O)cc(O)c4C[C@H]3O)cc(O)c(O)c12 | > 4 mM (inactive)
52 | Cn1nnc2cc(C(=O)NCc3ccco3)ccc21 | > 4 mM (inactive)
53 | CC(=O)Nc1ccc(NC(=O)C2CC2)cc1 | > 4 mM (inactive)
54 | N#C/C(=C\c1ccc[nH]1)S(=O)(=O)c1ccccc1 | > 4 mM (inactive)
55 | NCc1ccc(N2CCOCC2)cc1 | > 4 mM (inactive)
56 | Cc1nn(C)c(C)c1NC(=S)NC1CCCC1 | > 4 mM (inactive)
57 | CCCS(=O)(=O)N1CCN(c2ccccc2F)CC1 | > 4 mM (inactive)
58 | Cn1ncc(SCc2ccco2)c(Cl)c1=O | > 4 mM (inactive)
59 | Nc1ccc2c(c1)C(=O)OC2 | > 4 mM (inactive)
60 | COc1ccc2c3c1O[C@H]1C[C@@H](O)C=C[C@@]31CCN(C)C2 | > 4 mM (inactive)
61 | CN(C)C(=O)c1ccc(-c2n[nH]c(=O)c3ccccc23)cc1 | > 4 mM (inactive)
62 | C=CC(=O)N1CC2CC(C1)c1cccc(=O)n1C2 (stereo not given) | > 4 mM (inactive)
63 | CC(=O)NC(=S)Nc1ccc(S(N)(=O)=O)cc1 | > 4 mM (inactive)
64 | Cn1c(SCC(N)=O)nnc1-c1c[nH]c2ccccc12 | > 4 mM (inactive)
65 | O=C1CSC(=S)N1N1C(=O)C2C3C=CC(C3)C2C1=O (stereo not given) | > 4 mM (inactive)
66 | Cn1ccc(NC(=S)NC2CCCC2)n1 | > 4 mM (inactive)
67 | Cc1ccc(C(O)c2nccn2C)o1 (stereo not given) | > 4 mM (inactive)
68 | CC(=O)NCCc1cc2ccc(C)c(C)c2[nH]c1=O | > 4 mM (inactive)
69 | O=C1CSC(=Nc2cccc(C(=O)O)c2)N1 | > 4 mM (inactive)

Row | SMILES | Kd
70 | CN1CN(Cc2ccccc2)CN/C1=N/[N+](=O)[O-] | > 4 mM (inactive)
71 | COc1ccc2nc(NC(=O)c3cnccn3)sc2c1 | > 4 mM (inactive)
72 | C=C1C([C@]2(C)C(CC(=O)OC)[C@@](C)(COC(C)=O)OC(=O)C[C@@H]2OC(C)=O)[C@@H](OC=O)[C@H](OC(=O)C(OC(C)=O)C(C)CC)[C@@]2(C)[C@H](c3ccoc3)CC(=O)C12O (stereo not given in full) | > 4 mM (inactive)
73 | NC(=O)CN1CCC(c2nc3ccccc3[nH]2)CC1 | > 4 mM (inactive)
74 | N#Cc1cnn(Cc2ccc(Cl)cc2)c1N | > 4 mM (inactive)
75 | O=C1COc2ccccc2C(=O)N1 | > 4 mM (inactive)
76 | CCOC(=O)C1CCC(=O)c2cccn21 (stereo not given) | > 4 mM (inactive)
77 | CC1(C)CC[C@]2(C)CC[C@]3(C)C(=CCC4[C@@]5(C)CC[C@H](O)C(C)(C)C5CC[C@]43C)C2C1 (stereo not given in full) | > 4 mM (inactive)
78 | Cc1ncc(C(=O)O)c(-c2ccccc2)n1 | > 4 mM (inactive)
79 | C[C@H]1OC(O[C@H]2[C@@H](O)CC(O[C@H]3[C@@H](O)C[C@H](O[C@H]4CC[C@]5(C)C6CC[C@]7(C)[C@@H](C8=CC(=O)OC8)[C@@H](O)C[C@]7(O)[C@@H]6CC[C@@H]5C4)O[C@@H]3C)O[C@@H]2C)C[C@H](O)C1O (stereo not given in full) | > 4 mM (inactive)
80 | CCCNC(=O)CSc1nnc(C)s1 | > 4 mM (inactive)
81 | Cc1cc(O)c(NC(=O)c2ccco2)cc1C | > 4 mM (inactive)
82 | O=C(O)c1cn(-c2ccccc2)nc1-c1ccncc1 | > 4 mM (inactive)
83 | CC(=O)c1sc2nc(N)nn2c1C | > 4 mM (inactive)
84 | CN1C(=O)/C(=C/c2ccccc2O)NC1=S | > 4 mM (inactive)
85 | Cc1cc(C)n(S(=O)(=O)c2ccc(C(C)(C)C)cc2)n1 | > 4 mM (inactive)
86 | COc1ccccc1-c1n[nH]c(=O)o1 | > 4 mM (inactive)
87 | COc1ccc(-c2coc3cc(O)ccc3c2=O)c(O)c1O | > 4 mM (inactive)
88 | Cc1nc2ccccc2c(=O)n1NC(=O)C1CCCCC1 | > 4 mM (inactive)
89 | c1ccc(C[N+]23CCN(CC2)c2ccccc23)cc1 | > 4 mM (inactive)
90 | CC(=O)c1sc(NC(=O)C=C(C)C)nc1C | > 4 mM (inactive)
91 | O=[N+]([O-])c1cccc(CN2CCC(O)CC2)c1 | > 4 mM (inactive)
92 | C=C1CCC2C(CC2(C)C)C(=C)CC/C1=N/O (stereo not given) | > 4 mM (inactive)

Row | SMILES | Kd
93 | O=C1COc2cc(O)ccc21 | > 4 mM (inactive)
94 | O=C(CNC(=O)c1ccc(F)cc1)NC1=NCCS1 | > 4 mM (inactive)
95 | O=C(Nc1cccc(Cl)c1)c1ccncc1 | > 4 mM (inactive)
96 | COc1cc(OC)c2c(=O)c(-c3ccccc3)coc2c1 | > 4 mM (inactive)
97 | c1ccc2[nH]c(CCn3cncn3)nc2c1 | > 4 mM (inactive)
98 | Nc1csc(C(=O)O)c1 | > 4 mM (inactive)
99 | O=C(O)CCCN1CNC(=S)NC1 | > 4 mM (inactive)
100 | COc1ccc(-c2c(OC)c3c(OC)c4c(cc3oc2=O)OC(C)(C)C=C4)cc1 | > 4 mM (inactive)
101 | Cc1nnc(-n2cnc3ccccc32)c2ccccc12 | > 4 mM (inactive)
102 | N/C(=N/S(=O)(=O)c1cccs1)c1ccccc1 | > 4 mM (inactive)
103 | NC(=O)c1ccc(C(N)=O)cc1 | > 4 mM (inactive)
104 | CN(C)c1nc(N)nc(-c2nc3ccccc3s2)n1 | > 4 mM (inactive)
105 | Cc1oc(-c2ccccc2)nc1CCO | > 4 mM (inactive)
106 | CCOc1ccc(C)cc1S(=O)(=O)n1ccc(C)n1 | > 4 mM (inactive)
107 | CS(=O)(=O)Nc1cc2c3c(c1)CCN3C(=O)CC2 | > 4 mM (inactive)
108 | O=C1CCCC(=O)N1c1ccc(O)cc1 | > 4 mM (inactive)
109 | CN(C)c1oc(-c2ccccc2Cl)nc1C#N | > 4 mM (inactive)
110 | ON=c1ccc2nc3ccccc3nc2cc1 | > 4 mM (inactive)
111 | Cn1cccc1C(=S)N1CCOCC1 | > 4 mM (inactive)
112 | NC(=O)CCn1cnc2ccccc21 | > 4 mM (inactive)
113 | O[C@H]1C=C2CCN3Cc4cc5c(cc4C(C23)[C@@H]1O)OCO5 (stereo not given in full) | > 4 mM (inactive)
114 | Cc1occc1C(=O)NCc1ccccn1 | > 4 mM (inactive)
115 | CN1CCc2c(sc(N)c2C#N)C1 | > 4 mM (inactive)
